# Reference: patent US20260363244A1, “HERBICIDAL COMPOSITIONS COMPRISING URACILS” (BASF SE, priority 2022, published 2026)
# Where two headings read alike, the source gives them in different places.
# What was measured:
# Assay type in all cases: in vivo
# [1] = tested on: Abutilon theophrasti; assay: greenhouse post-emergence herbicidal activity, ABUTH; conditions: read-out: % activity (solo application); for activity at 2 g/ha: 2 gai/ha
# Method: (§1) The following examples serve to illustrate the invention.
# (§2) The culture containers used were plastic pots containing loamy sand with approximately 3.0% of humus as substrate. The seeds of the test plants were sown separately for each species.
# (§3) For the post-emergence treatment, the test plants were grown to a plant height of from 3 to 15 cm, depending on the plant habit, and only then treated with the active compounds which had been suspended or emulsified in water. To this end, the test plants were either sown directly, and grown in the same containers, or they were first grown separately as seedlings and transplanted into the test containers a few days prior to treatment.
# (§4) Depending on the species, the plants were kept at 10-25 °C and 20-35 °C, respectively. The test period extended over 2 to 4 weeks. During this time, the plants were tended and their response to the individual treatments was evaluated.
# (§5) Evaluation was carried out using a scale from 0 to 100. 100 means no emergence of the plants, or complete destruction of at least the above-ground parts, and 0 means no damage or normal course of growth. A good herbicidal activity is given at values of at least 70, and very good herbicidal activity is given at values of at least 85.
# (§6) The respective stated components A and B, and if appropriate, C were formulated as a 5% by weight strength emulsion concentrate and, with addition of the amount of solvent system, introduced into the spray liquor used for applying the active compound. In the examples, the solvent used was water.
# (§7) In the examples below, using the method of S. R. Colby (1967) “Calculating synergistic and antagonistic responses of herbicide combinations”, Weeds 15, p. 22ff., the value E, which is expected if the activity of the individual active compounds is only additive, was calculated.
# (§8) E=X+Y−(X·Y/100) • where • X=percent activity using active compound A at an application rate a; • Y=percent activity using active compound B at an application rate b; • E=expected activity (in %) by A+B at application rates a+b.
# (§9) The plants used in the greenhouse experiments were of the following species
# (§10) In this context, a.i. means active ingredient, based on 100% active ingredient.
# (§11) As indicated the application was post emergent (POST) at the respective growth stage (GS) of the weed.
# (§12) Assessment was at the indicated days after treatment (DAT).
# [2] = tested on: Avena fatua; assay: greenhouse post-emergence herbicidal activity, AVEFA; conditions: read-out: % activity (solo application); for activity at 2 g/ha / activity at 4 g/ha: 168 h, GS 12-16, 7 DAT; for activity at 2 g/ha: 2 gai/ha; for activity at 4 g/ha: 4 gai/ha; for activity at 0.5 g/ha: 0.5 gai/ha
# Method: as §1, §2, §3, §4, §5, §6, §7, §8, §9, §10, §11, §12
# [3] = tested on: Setaria faberi; assay: greenhouse post-emergence herbicidal activity, SETFA; conditions: Setaria faberi, post-emergence, read-out: % activity (solo application); for activity at 2 g/ha: 2 gai/ha; for activity at 4 g/ha: 4 gai/ha; for activity at […]: 0.25 gai/ha; for activity at 0.5 g/ha: 0.5 gai/ha
# Method: as §1, §2, §3, §4, §5, §6, §7, §8, §9, §10, §11, §12
# [4] = tested on: Amaranthus tamariscinus; assay: greenhouse post-emergence herbicidal activity, AMATA; conditions: 0.25 gai/ha, read-out: % activity (solo application)
# Method: as §1, §2, §3, §4, §5, §6, §7, §8, §9, §10, §11, §12
# [5] = tested on: Digitaria sanguinales; assay: greenhouse post-emergence herbicidal activity, DIGSA; conditions: for activity at […]: 0.25 gai/ha
# Method: as §1, §2, §3, §4, §5, §6, §7, §8, §9, §10, §11, §12
# [6] = tested on: Eleusine indica; assay: greenhouse post-emergence herbicidal activity, ELEIN; conditions: 480 h, GS 12-16, 20 DAT, 0.25 gai/ha, read-out: % activity (solo application)
# Method: as §1, §2, §3, §4, §5, §6, §7, §8, §9, §10, §11, §12
# [7] = tested on: Kochia scoparia; assay: greenhouse post-emergence herbicidal activity, KCHSC; conditions: for % activity: solo application, KCHSC
# Method: as §1, §2, §3, §4, §5, §6, §7, §8, §9, §10, §11, §12
# [8] = tested on: Setaria viridis; assay: greenhouse post-emergence herbicidal activity, SETVI; conditions: for activity at 1 g/ha: 1 gai/ha; for % activity: solo application, SETVI, GS 11-33, 8 DAT, use rate 0.8 gai/ha
# Method: as §1, §2, §3, §4, §5, §6, §7, §8, §9, §10, §11, §12
# [9] = tested on: Commenline benghalensis; assay: greenhouse post-emergence herbicidal activity, COMBE; conditions: read-out: % activity (solo application); for activity at 0.5 g/ha: 0.5 gai/ha
# Method: as §1, §2, §3, §4, §5, §6, §7, §8, §9, §10, §11, §12
# [10] = tested on: Echinocloa crus-galli; assay: greenhouse post-emergence herbicidal activity, ECHCG; conditions: for % activity: solo application, ECHCG, GS 11-33, 20 DAT
# Method: as §1, §2, §3, §4, §5, §6, §7, §8, §9, §10, §11, §12
# [11] = tested on: Brachiaria decumbens; assay: greenhouse post-emergence herbicidal activity, BRADC; conditions: solo application, BRADC, GS 11-33, 20 DAT, use rate 1.6 gai/ha
# Method: as §1, §2, §3, §4, §5, §6, §7, §8, §9, §10, §11, §12
# [12] = tested on: Lolium multiflorum; assay: greenhouse post-emergence herbicidal activity, LOLMU; conditions: solo application, LOLMU, GS 11-33, 7 DAT, use rate 1.6 gai/ha
# Method: as §1, §2, §3, §4, §5, §6, §7, §8, §9, §10, §11, §12
# [13] = tested on: Sorghum halepense; assay: greenhouse post-emergence herbicidal activity, SORHA; conditions: solo application, SORHA, GS 11-33, 20 DAT, use rate 1.6 gai/ha
# Method: as §1, §2, §3, §4, §5, §6, §7, §8, §9, §10, §11, §12
# [14] = Digitaria, post-emergence, 480 h, GS 12-16, 20 DAT, read-out: % activity (solo application)
# [15] = 480 h, GS 12-16, 20 DAT, 1 gai/ha
compound,measurement,setting,value
"C=C[C@]1(C(=O)N[C@@H]2CO[C@H](C(=O)OC)C2)CC(c2cc(F)cc(F)c2)=NO1 [(II.1.cis.A), methyl (2S,4S)-4-[[(5S)-3-(3,5-difluorophenyl)-5-vinyl-4H-isoxazole-5-carbonyl]amino]tetrahydrofuran-2-carboxylate]",activity at 2 g/ha,"[1]; 168 h, GS 12-16, 7 DAT",15%
same,activity at 2 g/ha,"[1]; 504 h, GS 12-16, 21 DAT",0%
same,activity at 2 g/ha,[2],20%
same,activity at 4 g/ha,[2],25%
same,activity at 2 g/ha,"[3]; 168 h, GS 12-16, 7 DAT",70%
same,activity at 4 g/ha,"[3]; 168 h, GS 12-16, 7 DAT",70%
same,activity at 2 g/ha,"[3]; 504 h, GS 12-16, 21 DAT",75%
same,activity at 4 g/ha,"[3]; 504 h, GS 12-16, 21 DAT",85%
"C=C[C@]1(C(=O)N[C@H]2CO[C@@H](C(=O)OC)C2)CC(c2cc(F)cc(F)c2)=NO1 [(II.1.cis.B), methyl (2R,4R)-4-[[(5S)-3-(3,5-difluorophenyl)-5-vinyl-4H-isoxazole-5-carbonyl]amino]tetrahydrofuran-2-carboxylate]",activity at 0.5 g/ha,"[1]; 144 h, GS 12-16, 6 DAT, 0.5 gai/ha",0%
same,activity at […],"[4]; 144 h, GS 12-16, 6 DAT",15%
same,activity at 2 g/ha,[2],10%
same,activity at 4 g/ha,[2],20%
same,activity at […],[5]; [14],20%
same,activity at 0.5 g/ha,"[5]; Digitaria, post-emergence, 480 h, GS 12-16, 20 DAT, 0.5 gai/ha, read-out: % activity (solo application)",50%
same,activity at […],[6],20%
same,activity at 0.5 g/ha,"[7]; Bassia scoparia, post-emergence, 480 h, GS 12-16, 20 DAT, 0.5 gai/ha, read-out: % activity (solo application)",15%
same,activity at […],"[3]; 144 h, GS 12-16, 6 DAT",35%
same,activity at 0.5 g/ha,"[3]; 144 h, GS 12-16, 6 DAT",55%
same,activity at […],"[3]; 480 h, GS 12-16, 20 DAT",20%
same,activity at 0.5 g/ha,"[3]; 480 h, GS 12-16, 20 DAT",25%
same,activity at 0.5 g/ha,"[8]; Setaria viridis, post-emergence, 480 h, GS 12-16, 20 DAT, 0.5 gai/ha, read-out: % activity (solo application)",50%
"C=C[C@]1(C(=O)N[C@H]2C=C[C@@H](C(=O)OC)C2)CC(c2cc(F)cc(F)c2)=NO1 [(II.5.cis.B), methyl (1S,4R)-4-[[(5S)-3-(3,5-difluorophenyl)-5-vinyl-4H-isoxazole-5-carbonyl]amino]cyclopent-2-ene-1-carboxylate]",activity at […],"[4]; 144 h, GS 12-16, 6 DAT",45%
same,activity at […],"[4]; 480 h, GS 12-16, 20 DAT",40%
same,activity at 2 g/ha,[2],40%
same,activity at […],"[9]; 144 h, GS 12-16, 6 DAT, 0.25 gai/ha",40%
same,activity at 0.5 g/ha,"[9]; 144 h, GS 12-16, 6 DAT",55%
same,activity at 0.5 g/ha,"[9]; 480 h, GS 12-16, 20 DAT",70%
same,activity at […],[5]; [14],35%
same,activity at […],"[10]; Echinochloa crus-galli, post-emergence, 144 h, GS 12-16, 6 DAT, 0.25 gai/ha, read-out: % activity (solo application)",15%
same,activity at […],"[3]; 144 h, GS 12-16, 6 DAT",40%
same,activity at […],"[3]; 480 h, GS 12-16, 20 DAT",30%
"C[C@]1(C(=O)N[C@H]2C=C[C@@H](C(=O)O)C2)CC(c2cc(F)cc(F)c2)=NO1 [(II.8.cis.B), (1S,4R)-4-[[(5R)-3-(3,5-difluorophenyl)-5-methyl-4H-isoxazole-5-carbonyl]amino]cyclopent-2-ene-1-carboxylic acid]",activity at 0.5 g/ha,"[2]; 144 h, GS 12-16, 6 DAT",20%
same,activity at 2 g/ha,[2],30%
same,activity at 4 g/ha,[2],30%
same,activity at 0.5 g/ha,"[2]; 480 h, GS 12-16, 20 DAT",15%
same,activity at 1 g/ha,[2]; [15],65%
same,activity at 0.5 g/ha,"[9]; 144 h, GS 12-16, 6 DAT",15%
same,activity at 1 g/ha,"[9]; 144 h, GS 12-16, 6 DAT, 1 gai/ha",40%
same,activity at 1 g/ha,"[10]; Echinochloa crus-galli, post-emergence, 144 h, GS 12-16, 6 DAT, 1 gai/ha, read-out: % activity (solo application)",70%
same,activity at 1 g/ha,"[7]; Bassia scoparia, post-emergence, 480 h, GS 12-16, 20 DAT, 1 gai/ha, read-out: % activity (solo application)",20%
same,activity at 0.5 g/ha,"[3]; 144 h, GS 12-16, 6 DAT",20%
same,activity at 0.5 g/ha,"[3]; 480 h, GS 12-16, 20 DAT",30%
same,activity at 1 g/ha,[3]; [15],50%
same,activity at 1 g/ha,"[8]; Setaria viridis, post-emergence, 144 h, GS 12-16, 6 DAT, read-out: % activity (solo application)",10%
same,activity at 1 g/ha,"[8]; Setaria viridis, post-emergence, 480 h, GS 12-16, 20 DAT, read-out: % activity (solo application)",20%
CCOC(=O)COc1ncccc1Oc1nc(-n2c(=O)cc(C(F)(F)F)n(C)c2=O)c(F)cc1Cl [I.6],% activity,[11],40%
same,% activity,"[5]; solo application, DIGSA, GS 11-33, 20 DAT, use rate 1.6 gai/ha",50%
same,% activity,[10]; use rate 1.6 gai/ha,45%
same,% activity,"[7]; GS 11-33, 20 DAT, use rate 0.8 gai/ha",55%
same,% activity,[12],15%
same,% activity,[8],30%
same,% activity,[13],10%
CCOC(=O)COc1ncccc1Oc1nc(-n2c(=O)cc(C(F)(F)F)n(C)c2=O)c(F)cc1Br [I.9],% activity,[10]; use rate 0.4 gai/ha,40%
same,% activity,"[7]; GS 11-33, 7 DAT, use rate 0.4 gai/ha",60%
same,% activity,[8],75%
